Data set [1] in a line: Equilibrium solubility in full range (fasted to fed) design of experiment simulated intestinal media. The data set is classed as physicochemical. To be noted: for Comparison of combined fasted and fed solubility data with the full range DoE: Mann-Whitney test on equilibrium solubility distributions; for Comparison of published fed DoE solubility distribution with full range DoE / Comparison of published fasted DoE solubility distribution with full range DoE / Comparison between all solubility data sets (fasted, fed, combined, full range): Mann-Whitney test; for Comparison of published fed DoE solubility distribution with full range DoE: fed state; for Effect of pH on equilibrium solubility: pH 5 to 7; for Comparison of published fasted DoE solubility distribution with full range DoE: fasted state; for Variability of equilibrium solubility values: Fig. 1 and 2; for Comparison between all solubility data sets (fasted, fed, combined, full range): Fig. 2b.
Source text: A quarter of the full factorial design of experiment with 7 factors (either a component concentration or a system parameter such as pH) and 2 levels (upper and lower limits) was constructed and analysed using Minitab®17.2.1. Minitab generated 32 different experiments by various combinations of the upper and lower limits of the 7 factors based on Table 1 (no centre point and no replicate). When designing and analysing the DoE assumptions were made. […] Only main effects and 2-way interactions are considered in the analysis and 3-way interactions or more were not considered. […] The single factors and factor interactions are confounded with 3 to 6-way interactions which were not included. There are three confounded 2-way factor interactions, sodium oleate and salt with buffer and monoglyceride, sodium oleate and buffer with salt and monoglyceride, sodium oleate and monoglyceride with salt and buffer. For these interactions if the result is significant then any conclusions must be drawn with caution as it might be the result of the four factors together or only one of the 2 way interactions. […] The main effect can be positive (+) or negative (−), but when it is involved in an interaction, the conclusion will be considered with the interactions (±).
The Kolmogorov normality test was used in Minitab® to assess the distribution of each data set, based on the result that all data sets have a non-normal distribution the Mann-Whitney test was applied to evaluate differences between two data sets.
A stream of nitrogen gas was used to remove the chloroform ensuring a dry film was produced. Water was added to reform the dried film, stirred to obtain a homogenous mixture, transferred to a volumetric flask (5 ml) and made to volume with water.
Salt and buffer stock solution: Sodium chloride (4.448 g) and monosodium phosphate (NaH2PO4) (2.395 g) were weighed into a 25 ml volumetric flask, dissolved and made up to the volume with water.
Sodium oleate: Sodium oleate (1.978 g) was weighed into a 25 ml volumetric flask, dissolved in water under gentle heat and made to final volume. Solution was then kept at 50 °C to aid solubilisation.
The concentration of each stock mixture has been designed to be 15 times greater than the upper limit concentration value required for the DoE, with the exception of sodium oleate where only a 5 times concentration was possible. The stock mixtures were combined to provide the 32 measurement solutions according to the DoE model.
This protocol has been previously validated to ensure equilibrium solubility is achieved after 24 h with no methodological interference ([Khadra et al., 2015], [Zhou et al., 2017]). A weight of powdered drug (10 mg) was added to a centrifuge tube (15 ml Corning®). The required volume of each stock solution (section above) and water was added to provide a final volume of 4 ml in every tube. pH was then adjusted to 5 or 7 using 0.1 M HCL or 0.1 M KOH. Tubes were shaken for 1 h at room temperature and then pH adjusted again as before. Tubes are then placed in an orbital shaker and incubated for 24 h at 37 °C and 240 rpm. Following incubation the tubes were checked for the presence of solid drug, then centrifuged (13,000 rpm, 5 min) and the supernatant (500 μl) was sampled to determine the solubilised drug concentration by HPLC.

On the set-up of data set [2]: method as in Khadra et al., 2015. To be noted: ref Khadra et al., 2015, cited from earlier work; for Statistical significance of DoE factor Bile Salt on equilibrium solubility, Fstd / Statistical significance of DoE factor Lecithin on equilibrium solubility, Fstd / Statistical significance of DoE factor Oleate on equilibrium solubility, Fstd / Statistical significance of DoE factor pH on equilibrium solubility, Fstd / Statistical significance of DoE factor Buffer on equilibrium solubility, Fstd / Statistical significance of DoE factor Salt on equilibrium solubility, Fstd: fasted media design of experiment; for Effect of buffer on equilibrium solubility in the fasted study: fasted DoE.

Details of data set [3]: method as in Zhou et al., 2017. As to conditions: fed media design of experiment; ref Zhou et al., 2017; cited from earlier work.
For data set [4] the following is noted: cited from earlier work; for pKa: quoted without reference.
The conditions of data set [5]: quoted without reference; cited from earlier work.
The mark [6] stands for this setting: full range DoE, standardised effect.
Setting [7] is: full range media design of experiment, p < 0.05.

Entries after “also recorded” stand apart in the source; their conditions may differ.

One may read the pKa as the pH at which an ionisable group is half protonated. With `COc1cc(C(=O)NS(=O)(=O)c2ccccc2C)ccc1Cc1cn(C)c2ccc(NC(=O)OC3CCCC3)cc12` [Zafirlukast, zafirlukast], in data set [1], the “Comparison of combined fasted and fed solubility data with the full range DoE” value (“Comparison … with the full range DoE” below) is given as “no significant difference”; the “Comparison of published fed DoE solubility distribution with full range DoE” value is recorded as “statistically equivalent”. Moreover, in data set [1] (setting [6]), the “Effect of bile salt on equilibrium solubility” value (“Effect of bile salt” below) is “positively affects” and the “Effect of pH on equilibrium solubility” value is reported as “significant effect”. Further, in data set [1] (setting [7]), the “Statistical significance of DoE factor Bile Salt on equilibrium solubility, Full” value was “S” and the “Statistical significance of DoE factor pH on equilibrium solubility, Full” value (shortened to “Statistical significance of DoE factor pH … Full”) is reported as “S”. Further, in data set [2], the “Statistical significance of DoE factor Bile Salt on equilibrium solubility, Fstd” value was “S”; the “Statistical significance of DoE factor Lecithin on equilibrium solubility, Fstd” value is given as “S”; the “Statistical significance of DoE factor Oleate on equilibrium solubility, Fstd” value is reported as “S”; the “Statistical significance of DoE factor pH on equilibrium solubility, Fstd” value (from here on “Statistical significance of DoE factor pH … Fstd”) is listed as “S”. In data set [3], the “Statistical significance of DoE factor Bile Salt on equilibrium solubility, Fed” value was “S” and the “Statistical significance of DoE factor pH on equilibrium solubility, Fed” value (shortened to “Statistical significance of DoE factor pH … Fed”) is reported as “S”. The pKa in data set [4] is on record as 4.3.
Turning to `COc1ccccc1OCCNCC(O)COc1cccc2[nH]c3ccccc3c12` (stereo not shown) [Carvedilol, carvedilol], in data set [1], the “Comparison … with the full range DoE” value is on record as “no significant difference”; the “Comparison of published fasted DoE solubility distribution with full range DoE” value is recorded as “statistically equivalent”. For the same compound, in data set [1] (setting [6]), the “Effect of sodium oleate on equilibrium solubility” value (“Effect of sodium oleate” for short) is recorded as “positively affected” and the “Effect of pH on equilibrium solubility” value was “significant effect”. Moreover, in data set [1] (setting [7]), the “Statistical significance of DoE factor Oleate on equilibrium solubility, Full” value was “S” and the “Statistical significance of DoE factor pH … Full” value is reported as “S”. Also, in data set [2], the “Statistical significance of DoE factor Bile Salt on equilibrium solubility, Fstd” value is “S”; the “Statistical significance of DoE factor Lecithin on equilibrium solubility, Fstd” value was “S”; the “Statistical significance of DoE factor Oleate on equilibrium solubility, Fstd” value was “S”; the “Statistical significance of DoE factor pH … Fstd” value is “S”. In addition, in data set [3], the “Statistical significance of DoE factor Bile Salt on equilibrium solubility, Fed” value is “S”; the “Statistical significance of DoE factor Buffer on equilibrium solubility, Fed” value is on record as “S”; the “Statistical significance of DoE factor Monoglyceride on equilibrium solubility, Fed” value is given as “S”; the “Statistical significance of DoE factor Oleate on equilibrium solubility, Fed” value is given as “S”. Moreover, the “Statistical significance of DoE factor pH … Fed” value in data set [3] is recorded as “S”.
For `COc1ccc2c(c1)c(CC(=O)O)c(C)n2C(=O)c1ccc(Cl)cc1` [Indomethacin, indomethacin], in data set [1], the “Comparison … with the full range DoE” value is reported as “no significant difference”. Also, the “Variability of equilibrium solubility values” (“Variability” for short) in data set [1] (full range DoE) is “larger variability”. Also, in data set [1] (setting [7]), the “Statistical significance of DoE factor Bile Salt on equilibrium solubility, Full” value was “S”; the “Statistical significance of DoE factor Oleate on equilibrium solubility, Full” value is given as “S”; the “Statistical significance of DoE factor pH … Full” value was “S”. For the same compound, in data set [2], the “Effect of buffer on equilibrium solubility in the fasted study” value is “negative effect”; the “Statistical significance of DoE factor Bile Salt on equilibrium solubility, Fstd” value is “S”; the “Statistical significance of DoE factor Buffer on equilibrium solubility, Fstd” value is on record as “S”; the “Statistical significance of DoE factor Oleate on equilibrium solubility, Fstd” value was “S”. In addition, the “Statistical significance of DoE factor pH … Fstd” value in data set [2] is listed as “S”. Also, in data set [3], the “Statistical significance of DoE factor Bile Salt on equilibrium solubility, Fed” value is reported as “S”; the “Statistical significance of DoE factor Oleate on equilibrium solubility, Fed” value is “S”; the “Statistical significance of DoE factor pH … Fed” value was “S”.
What is called log P is a log measure of how a compound divides between an organic and an aqueous phase. In the case of `CCOC(=O)C1=C(C)NC(C)=C(C(=O)OC)C1c1cccc(Cl)c1Cl` (stereo not shown) [Felodipine, felodipine], in data set [1], the “Comparison … with the full range DoE” value is on record as “significantly different”; the “Comparison of published fed DoE solubility distribution with full range DoE” value was “statistically equivalent”. Besides, the “Variability” value in data set [1] (full range DoE) was “large variability”. Further, in data set [1] (setting [6]), the “Effect of bile salt” value was “positive effect”, the “Effect of lecithin on equilibrium solubility” value is recorded as “affected”, the “Effect of sodium oleate” value was “positive effect” and the “Effect of pH on equilibrium solubility” value is reported as “affected”. Besides, in data set [1] (setting [7]), the “Statistical significance of DoE factor Bile Salt on equilibrium solubility, Full” value is given as “S”; the “Statistical significance of DoE factor Lecithin on equilibrium solubility, Full” value is recorded as “S”; the “Statistical significance of DoE factor Oleate on equilibrium solubility, Full” value is on record as “S”; the “Statistical significance of DoE factor pH … Full” value is on record as “S”. Moreover, the “log P” value in data set [5] is given as 3.8. In addition, in data set [2], the “Statistical significance of DoE factor Bile Salt on equilibrium solubility, Fstd” value is “S”; the “Statistical significance of DoE factor Lecithin on equilibrium solubility, Fstd” value is given as “S”; the “Statistical significance of DoE factor Oleate on equilibrium solubility, Fstd” value is on record as “S”; the “Statistical significance of DoE factor pH … Fstd” value is given as “S”. In data set [3], the “Statistical significance of DoE factor Bile Salt on equilibrium solubility, Fed” value was “S”; the “Statistical significance of DoE factor Lecithin on equilibrium solubility, Fed” value is “S”; the “Statistical significance of DoE factor Oleate on equilibrium solubility, Fed” value was “S”; the “Statistical significance of DoE factor pH … Fed” value is reported as “S”.
In the case of `O=C1NC(=O)C(c2ccccc2)(c2ccccc2)N1` [Phenytoin, phenytoin], in data set [1], the “Comparison … with the full range DoE” value is reported as “no significant difference”; the “Comparison of published fasted DoE solubility distribution with full range DoE” value is reported as “statistically equivalent”. Moreover, the “Variability” value in data set [1] (full range DoE) is on record as “more consistency; also recorded: very consistent”. In addition, in data set [1] (setting [7]), the “Statistical significance of DoE factor Oleate on equilibrium solubility, Full” value is given as “S” and the “Statistical significance of DoE factor pH … Full” value was “S”. Further, in data set [2], the “Effect of buffer on equilibrium solubility in the fasted study” value was “positive effect”; the “Statistical significance of DoE factor Bile Salt on equilibrium solubility, Fstd” value is “S”; the “Statistical significance of DoE factor Buffer on equilibrium solubility, Fstd” value is “S”; the “Statistical significance of DoE factor Lecithin on equilibrium solubility, Fstd” value is reported as “S”. Moreover, in data set [2], the “Statistical significance of DoE factor Oleate on equilibrium solubility, Fstd” value was “S”; the “Statistical significance of DoE factor Salt on equilibrium solubility, Fstd” value is “S”; the “Statistical significance of DoE factor pH … Fstd” value was “S”. In addition, in data set [3], the “Statistical significance of DoE factor Bile Salt on equilibrium solubility, Fed” value is given as “S”; the “Statistical significance of DoE factor Monoglyceride on equilibrium solubility, Fed” value is “S”; the “Statistical significance of DoE factor Oleate on equilibrium solubility, Fed” value was “S”; the “Statistical significance of DoE factor pH … Fed” value is listed as “S”.
Take `C[C@@H](O[C@H]1OCCN(Cc2n[nH]c(=O)[nH]2)[C@H]1c1ccc(F)cc1)c1cc(C(F)(F)F)cc(C(F)(F)F)c1` [Aprepitant, aprepitant]: in data set [1], the “Comparison … with the full range DoE” value is recorded as “significantly different”; the “Comparison between all solubility data sets (fasted, fed, combined, full range)” value is listed as “statistically significant difference between all data sets”. Moreover, the “Variability” value in data set [1] (full range DoE) was “more consistency”. Moreover, in data set [1] (setting [6]), the “Effect of sodium oleate” value is recorded as “positively affected” and the “Effect of pH on equilibrium solubility” value is “significant effect”. For the same compound, in data set [1] (setting [7]), the “Statistical significance of DoE factor Oleate on equilibrium solubility, Full” value is “S” and the “Statistical significance of DoE factor pH … Full” value is reported as “S”. In addition, the “log P” value in data set [5] is listed as 4.5. Also, in data set [2], the “Statistical significance of DoE factor Bile Salt on equilibrium solubility, Fstd” value was “S”; the “Statistical significance of DoE factor Oleate on equilibrium solubility, Fstd” value is “S”; the “Statistical significance of DoE factor pH … Fstd” value is recorded as “S”. Besides, in data set [3], the “Statistical significance of DoE factor Bile Salt on equilibrium solubility, Fed” value was “S”; the “Statistical significance of DoE factor Buffer on equilibrium solubility, Fed” value is recorded as “S”; the “Statistical significance of DoE factor Lecithin on equilibrium solubility, Fed” value is on record as “S”; the “Statistical significance of DoE factor Oleate on equilibrium solubility, Fed” value is “S”. Moreover, in data set [3], the “Statistical significance of DoE factor Salt on equilibrium solubility, Fed” value was “S” and the “Statistical significance of DoE factor pH … Fed” value is “S”.
Turning to `CN1CC(=O)N2[C@H](c3ccc4c(c3)OCO4)c3[nH]c4ccccc4c3C[C@@H]2C1=O` [Tadalafil, tadalafil], in data set [1], the “Comparison … with the full range DoE” value is reported as “significantly different”; the “Comparison between all solubility data sets (fasted, fed, combined, full range)” value was “statistically significant difference between all data sets”. In addition, the “Variability” value in data set [1] (full range DoE) is recorded as “large variability”. In data set [1] (setting [6]), the “Effect of bile salt” value is “positively affects”, the “Effect of sodium oleate” value was “positively affected” and the “Effect of pH on equilibrium solubility” value is recorded as “not”. In addition, in data set [1] (setting [7]), the “Statistical significance of DoE factor Bile Salt on equilibrium solubility, Full” value is reported as “S” and the “Statistical significance of DoE factor Oleate on equilibrium solubility, Full” value is “S”. In data set [2], the “Statistical significance of DoE factor Bile Salt on equilibrium solubility, Fstd” value was “S”; the “Statistical significance of DoE factor Buffer on equilibrium solubility, Fstd” value was “S”; the “Statistical significance of DoE factor Lecithin on equilibrium solubility, Fstd” value is recorded as “S”; the “Statistical significance of DoE factor Oleate on equilibrium solubility, Fstd” value is “S”. Moreover, in data set [2], the “Statistical significance of DoE factor Salt on equilibrium solubility, Fstd” value is “S” and the “Statistical significance of DoE factor pH … Fstd” value is listed as “S”. In addition, in data set [3], the “Statistical significance of DoE factor Bile Salt on equilibrium solubility, Fed” value is listed as “S” and the “Statistical significance of DoE factor Oleate on equilibrium solubility, Fed” value is “S”. Besides, the pKa in data set [4] is on record as 10.
As for `CCCCCCCC/C=C\CCCCCCCC(=O)O` [oleate, Sodium oleate], the “pKa of acidic media factors” value in data set [4] (ref Holm et al., 2013) is given as “approximately 5”.
With `CC(C)(Sc1cc(C(C)(C)C)c(O)c(C(C)(C)C)c1)Sc1cc(C(C)(C)C)c(O)c(C(C)(C)C)c1` [Probucol, probucol], the “Comparison … with the full range DoE” value in data set [1] is “no significant difference”. In data set [1] (full range DoE), the “Influence of any DoE factor on equilibrium solubility” value is reported as “not significantly influenced by any of the factors”. For the same compound, the “log P” value in data set [5] was 10.9.
